From US11844841B2, “Dosing regimens and related compositions and methods” (Apellis Pharmaceuticals, Inc., priority 2017, dated 2023)

How the values were obtained:
[1] = Inhalation study, repeated dosing; conditions: in vivo, inhaled or intranasal, 25 mg/kg/d; 7 day repeated dose study in the dog
Protocol: (§1) Inhalation studies of single dose or repeated dosing were conducted in dog and cynomolgus monkey. […] These doses were 25 mg/kg/d in a 7 day repeated dose study in the dog, 80 mg/kg in a single dose study in the monkey, and 30 mg/kg/day in a 14 day repeated dose in the monkey.

[2] = Phase 1 single and multiple ascending dose trial of inhaled (nebulized) CA28 in healthy volunteers; type: in vivo, human; conditions: for adverse event: one subject
Protocol: In the single ascending dose part of the trial, 16 subjects were enrolled in four cohorts of four subjects each.
Four subjects were enrolled in the first cohort of the multiple ascending dose part of the trial. These subjects were to receive 14 consecutive days of treatment with a 60 mg/day dose of the drug. […] The trial was paused and subsequently resumed, with subjects receiving 30 mg/day. […] The trial was then terminated.

[3] = Inhalation studies, single dose and repeated dosing; type: in vivo, cynomolgus monkey
Protocol: as §1

[4] = system: PNH RBCs; assay: Modified Ham's assay, comparison with Soliris (Example 19); type: cell-based, human; conditions: CA28-2GS-BF 50 ug/ml
Protocol: Flow cytometry was performed after antibody staining using antibodies against CD59 and C3d. In this figure, quadrant 1 (Q1) and quadrant 3 (Q3) represent Type III cells. Quadrant 2 (Q2) and quadrant 4 (Q4) represent Types I and II cells. Q1 and Q2 represent cells with a significant and abnormally high amount of C3 activation product (e.g., C3d) deposition. Q3 and Q4 represent cells without significant C3d deposition or somewhat elevated level (right portion of Q4) but less so than Q2 cells.

[5] = system: complement activation via the classical pathway; assay: Classical complement inhibition assay (C3b deposition ELISA); type: biochemical, human
Protocol: Inhibitory activity of the synthesized compounds was assessed by measuring the effect of the compounds on complement activation via the classical pathway using a standard complement inhibition assay. The protocol measures C3b deposition in an ELISA format. C3b deposition monitored using this method is generated through complement activated by the classical pathway. Briefly, 96-well plates are coated with BSA. Human plasma, chicken ovalbumin (OVA), polyclonal anti-OVA antibodies and compound being tested (referred to as “drug”) are added and incubated, followed by addition of Anti-human C3 HRP-conjugated antibody. After an additional incubation, substrate is added and signal detected. Details of the protocol are as follows:
Protocol for Classical Complement Inhibition Assay
• Ninety-six well plate (polystyrene plate, Thermo Scientific, 9205) • Chicken OVA (Sigma A5503-5G) • Rabbit anti-chicken OVA (Abcam ab1221) • Blocking buffer (Startingblock buffer, Thermo Scientific 37538) • Veronal Buffer (5× concentration, Lonza 12-624E) • Human plasma (collected with Lepirudin at 50 ug/ml final concentration) • Goat anti-human C3 HRP-conjugated Ab (MP Biomedicals, 55237) • Tween-20 Wash Buffer (0.05% Tween 20-PBS buffer) • TMB (Peroxidase substrate, BD 555214)—1:1 mixture of BD 51-2607KC and 51-2606KC. • 1M H2SO4 Protocol: • 1. […]
Data was analyzed using GraphPad Prism5 software. […]

[6] = system: RBCs from a patient with PNH; assay: Modified Ham's test with flow cytometry for CD59 and C3d (Example 18); type: cell-based, human
Protocol: A modified Ham's test was performed to assess the ability of compstatin analogs to protect PNH RBCs from complement-mediated lysis. […] Exposure to heat inactivated human serum was used as a control representing no significant complement-mediated lysis as complement is inactivated by heat. Exposure to acidified human serum and magnesium (Mg^2+) in the absence of complement inhibitors (pane labeled Mg^2+) was used as a control representing maximum lysis.
Following incubation, cells were stained with antibodies to CD59 and C3d. CD59 level permitted the classification of the PNH RBCs as Type I, Type II, or Type III. Staining for C3d, a product of C3 activation and cleavage was used as a marker of C3 and C3 activation product deposition (loading). Flow cytometric analysis was performed to assess CD59 and C3d on RBC surfaces and to quantify the percentages of Type I, Type II, and Type III cells present in various samples.
Type I cells (shown in orange in FIG. 12) have normal levels of CD59. Type III cells (shown in blue in FIG. 12) have essentially no detectable CD59. […] Type II cells (shown in purple in FIG. 12) have reduced levels of CD59 as compared with normal or Type I cells and have an intermediate sensitivity to complement-mediated lysis. […] Type II cells may eventually lyse in the presence of activated complement but can accumulate a considerable amount of C3 activation products such as C3d before they do so. Reduction in or absence of lysis may be evidenced by increased levels of C3 or C3 activation products on Type II cells, as is evident by comparing the level of C3d on Type II cells in the no lysis panel with the level of C3d on Type II cells in the max. lysis panel in both FIGS. 12(A) and 12(B). […] A shift in the relative percentages of Type I, II, and III cells from the percentages present in the max. lysis control panels (Mg^2+) towards the percentages present in the no lysis control panels (heat inactivated serum) is indicative of protection against complement-mediated lysis. The column labeled % C′3 in Table 11 refers to the percentage of cells deemed “positive” for presence of C3 and C3 activation products (“C3 loading”).

## CC[C@H](C)[C@H](NC(C)=O)C(=O)N[C@H]1CSSC[C@@H](C(=O)N[C@H](C(N)=O)[C@@H](C)O)NC(=O)[C@H](CCCNC(=N)N)NC(=O)[C@H](Cc2cnc[nH]2)NC(=O)[C@H](C)NC(=O)CNC(=O)[C@H](Cc2c[nH]c3ccccc23)NC(=O)[C@H](CC(=O)O)NC(=O)[C@H](CCC(N)=O)NC(=O)[C@H](Cc2cn(C)c3ccccc23)NC(=O)[C@H](C(C)C)NC1=O [CA28]
[1]
  NOAEL at 168 h: 25 mg/kg/day
[2]; 30 mg/day inhaled, after 10 days of treatment
  adverse event: signs and symptoms consistent with a potential bacterial infection
[2]; 60 mg/day inhaled, after nine days of treatment
  adverse event: signs and symptoms consistent with a potential bacterial infection
[2]; single inhaled doses 20, 60, 150 or 350 mg
  safety and tolerability: well tolerated and no serious adverse events were reported
[3]; 14 day repeated dose in the monkey
  highest inhaled dose tested, no drug-related findings: 30 mg/kg/day
[3]; cynomolgus monkey, in vivo, inhaled or intranasal, 80 mg/kg, single dose study in the monkey
  NOAEL: 80 mg/kg

## CA28-2GS-BF: Bifunctional linear 40 kD PEG of the GS (glutaryl NHS ester) type coupled to two CA28-AEEAc-Lys moieties
[4]
  deposition of C3d on PNH RBCs: essentially no deposition of C3d
[5]
  complement inhibiting activity, comparison in words: virtually identical
[6]; compound at 20 micrograms/ml
  Type I % C′3: 2.18%
  Type II % C′3: 12.28%
  Type III % C′3: 0.99%
[6]; compound at 40 micrograms/ml
  Type I % C′3: 2.84%
  Type III % C′3: 1.21%
[6]; compound at 50 micrograms/ml
  Type I % C′3: 2.26%
  Type III % C′3: 1.29%
[6]; compound at 60 micrograms/ml
  Type I % C′3: 2.05%
  Type II % C′3: 13.04%
  Type III % C′3: 1.44%
[6]; compound at 100 micrograms/ml
  Type I % C′3: 0.07%
  Type II % C′3: 0.88%
  Type III % C′3: 0.11%
[6]; compound at 200 micrograms/ml
  Type I % C′3: 0.02%
  Type II % C′3: 0.26%
  Type III % C′3: 0.02%
[6]; compound at 500 micrograms/ml
  Type I % C′3: 0.04%
  Type II % C′3: 0.3%
  Type III % C′3: 0.05%
[6]; in the presence of 100 ug/ml or more compstatin analog
  protection of PNH RBCs from complement-mediated lysis: complete protection from complement-mediated lysis
